Assay [1] relates to male Zucker fa/fa rats. As to the kind of experiment: Effects after mixed-carbohydrate loading with or without sucrose (plasma glucose AUC 0-3 h). Format: in vivo, rat. The settings on record: Zucker fatty fa/fa rats, oral; Example 1 0.5 mg/kg, Example 2 0.3 mg/kg, acarbose 5 mg/kg, miglitol 5 mg/kg, phlorizin 100 mg/kg; 1.6 g glucose/kg load. An excerpt:
Next, in order to investigate whether effects caused by fructose ingestion are present, the present inventors have performed the following test using Zucker fatty fa/fa rats, model animals of type-2 diabetes. […] In the fructose-containing diet group, mixed carbohydrate (starch: sucrose: lactose=6:3:1), which corresponds approximately to carbohydrates in regular diets, was loaded. (e.g., see the following Reference 35). On the other hand, in the fructose-free diet group, mixed carbohydrate substituted the corresponding amount of starch for the amount of glucose contained within sucrose, was loaded, because sucrose is a disaccharide and is digested to glucose and fructose in the gastrointestinal tract. Then, comparison study of each diet was performed.
The FIG. 1 is a graph showing hypoglycemic effects of each drug caused by fructose ingestion.
Effects of SGLT1 Inhibitors, an SGLT Inhibitor and α-glucosidase Inhibitors After Mixed-Carbohydrate Containing Sucrose Loading
Immediately after the compound administration, mixed-carbohydrate with sucrose (starch:sucrose:lactose=6:3:1) or without sucrose (starch:lactose=7.5:1) was loaded at a dose of 1.6 g glucose/kg. The blood was collected immediately before and after the administration with the time course (0, 0.5, 1, 2, 3 hours). The plasma was collected to quantify the plasma glucose concentration. The area under the curve of plasma glucose concentration from 0 to 3 hours was calculated by the trapezoidal method. Statistical analysis was T test between existence and nonexistence of sucrose in mixed-carbohydrate solution on each compound.

In assay [2] the target is T1, rat SGLT1 (Rattus norvegicus, UniProt P53790).
T1 construct: expressed in transfected cells
T1 sequence (P53790 1-665): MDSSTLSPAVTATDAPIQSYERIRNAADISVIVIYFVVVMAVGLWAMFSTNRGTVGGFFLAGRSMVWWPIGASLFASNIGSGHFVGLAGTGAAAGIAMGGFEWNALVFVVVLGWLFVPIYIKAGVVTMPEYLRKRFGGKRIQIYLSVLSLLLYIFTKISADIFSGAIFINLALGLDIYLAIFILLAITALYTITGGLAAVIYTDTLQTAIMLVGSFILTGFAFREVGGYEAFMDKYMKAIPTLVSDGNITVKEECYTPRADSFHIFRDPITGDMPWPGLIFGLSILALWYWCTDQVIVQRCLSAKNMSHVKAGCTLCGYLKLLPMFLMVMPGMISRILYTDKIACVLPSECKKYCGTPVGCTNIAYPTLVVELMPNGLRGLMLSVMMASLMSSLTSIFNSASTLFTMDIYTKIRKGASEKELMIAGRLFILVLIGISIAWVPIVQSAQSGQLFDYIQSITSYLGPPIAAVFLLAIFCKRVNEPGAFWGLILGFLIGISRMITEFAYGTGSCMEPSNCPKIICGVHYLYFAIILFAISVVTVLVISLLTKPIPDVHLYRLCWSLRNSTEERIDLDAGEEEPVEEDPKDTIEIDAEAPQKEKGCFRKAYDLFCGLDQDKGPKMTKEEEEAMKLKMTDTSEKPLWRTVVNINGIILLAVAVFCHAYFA
As to the kind of experiment: Assay for inhibitory effects on rat SGLT1 activity (uptake of methyl-α-D-glucopyranoside in CrS1 cells). The settings on record: CHO-K1 cells stably expressing rat SGLT1 (CrS1), 1 mM α-MG, 37° C., 1 hour; read-out: IC50 value, inhibition of uptake of methyl-α-D-glucopyranoside. Format: cell-based. How it is done: A test compound was dissolved in dimethyl sulfoxide, and then appropriately diluted with distilled water. The test compound solution was added to the uptake buffer containing 1 mM α-MG, and designated as a measurement buffer. For the control group, the measurement buffer without any test compound was prepared. […] After repeating the same treatment, the pre-treatment buffer was removed. To each well was added 75 μL of the measurement buffer or the basal uptake buffer was added and incubated at 37° C. for 1 hour. After removing the measurement buffer, cells were washed twice with 180 μL per well of the washing buffer (the basal uptake buffer containing 10 mM non-labeled α-MG). The cells were solubilized by 75 μL per well of 0.2 mol/L sodium hydroxide. The cell lysates were transferred into PicoPlates (Packard), and then added 150 μL of MicroScint-40 (Packard) and mixed. Radioactivity was measured by means of micro-scintillation counter TopCount (Packard).

In assay [3] the test system is male Wistar rats. Description: Effects of an SGLT1 inhibitor on absorption of fructose (fructose tolerance test, residual fructose in the gastrointestinal tract). The class given is in vivo, rat. How it is done:
Effects of an SGLT1 Inhibitor on Absorption of Fructose
Immediately after the administration, 0.2 g/kg of fructose was loaded. After 30 minutes, rats were sacrificed with exsanguination under ether anesthesia and then the contents of stomach and small intestine were collected with 10 mL ice-cold saline. Fructose concentration was measured by fructose assay kit (D-glucose/D-Fructose; Roche diagnostics) and calculated residual fructose (% of dose) in the gastrointestinal tract. Statistical analysis between control and treated groups are calculated using T test.

On to `OCCN1C[C@H](O)[C@@H](O)[C@H](O)[C@H]1CO` [miglitol, reference compound], for which the “Reduction of plasma glucose concentration after sucrose-containing diet compared with sucrose-free diet (in words)” value (“Reduction … with sucrose-free diet (in words)” below) in assay [1] is reported as “did not reduce plasma glucose concentration”.

Take `O=C(CCc1ccc(O)cc1)c1c(O)cc(O)cc1O[C@@H]1O[C@H](CO)[C@@H](O)[C@H](O)[C@H]1O` [Phlorizin, reference compound]: the “Reduction … with sucrose-free diet (in words)” value in assay [1] is reported as “did not reduce plasma glucose concentration”.

`Cc1cc(O)cc(O[C@@H]2O[C@H](CO)[C@@H](O)[C@H](O)[C@H]2O)c1Cc1ccc(NC(=O)NCc2cccnc2)cc1` [Example 1, 5-Hydroxy-3-methyl-2-{4-[3-(3-pyridylmethyl)ureido]benzyl}-phenyl β-D-glucopyranoside]: in assay [2], the IC50 is 139 nM. The “Reduction … with sucrose-free diet (in words)” value in assay [1] is recorded as “significantly reduced plasma glucose concentration”.

With `Cc1cc(OCCNC(=N)N)ccc1Cc1c(O[C@@H]2O[C@H](CO)[C@@H](O)[C@H](O)[C@H]2O)n[nH]c1C(C)C` [Example 2, 3-(β-D-Glucopyranosyloxy)-4-{[4-(2-guanidinoethoxy)-2-methylphenyl]methyl}-5-isopropyl-1H-pyrazole], in assay [3] (0.3 mg/kg oral, 0.2 g/kg fructose load, after 30 minutes, stomach and small intestine contents, control 11.8 ± 2.1), the “Residual fructose (% of dose) in the gastrointestinal tract” value is on record as 12.2 ± 2.6%. Further, the “Inhibitory effect on absorbing fructose (in words)” value in assay [3] (fructose tolerance test, residual fructose in the gastrointestinal tract) is recorded as “substantially show no inhibitory effect on absorbing fructose”. Moreover, in assay [2], the IC50 worked out at 38.1 nM. Besides, the “Reduction … with sucrose-free diet (in words)” value in assay [1] was “significantly reduced plasma glucose concentration”.

(Values after patent US20060035844A1, “Preventive or remedy for diseases caused by hyperglycemia” (priority 2002, published 2006).)
